What was measured:
[1] = target: Sodium-dependent dopamine transporter (Rattus norvegicus, UniProt P23977); assay: Inhibitory activity against Dopamine transporter using 0.5 nM [3H]WIN-35428 as radioligand
[2] = target: Norepinephrine transporter (Rattus norvegicus, UniProt Q9WTR4); assay: Inhibitory activity against Norepinephrine transporter using 0.5 nM [3H]-radioligand
[3] = target: Sodium-dependent serotonin transporter (Rattus norvegicus, UniProt P31652); assay: Inhibitory activity against Serotonin transporter using 0.2 nM [3H]paroxetine as radioligand
Chain of Sodium-dependent serotonin transporter (P31652 whole entry): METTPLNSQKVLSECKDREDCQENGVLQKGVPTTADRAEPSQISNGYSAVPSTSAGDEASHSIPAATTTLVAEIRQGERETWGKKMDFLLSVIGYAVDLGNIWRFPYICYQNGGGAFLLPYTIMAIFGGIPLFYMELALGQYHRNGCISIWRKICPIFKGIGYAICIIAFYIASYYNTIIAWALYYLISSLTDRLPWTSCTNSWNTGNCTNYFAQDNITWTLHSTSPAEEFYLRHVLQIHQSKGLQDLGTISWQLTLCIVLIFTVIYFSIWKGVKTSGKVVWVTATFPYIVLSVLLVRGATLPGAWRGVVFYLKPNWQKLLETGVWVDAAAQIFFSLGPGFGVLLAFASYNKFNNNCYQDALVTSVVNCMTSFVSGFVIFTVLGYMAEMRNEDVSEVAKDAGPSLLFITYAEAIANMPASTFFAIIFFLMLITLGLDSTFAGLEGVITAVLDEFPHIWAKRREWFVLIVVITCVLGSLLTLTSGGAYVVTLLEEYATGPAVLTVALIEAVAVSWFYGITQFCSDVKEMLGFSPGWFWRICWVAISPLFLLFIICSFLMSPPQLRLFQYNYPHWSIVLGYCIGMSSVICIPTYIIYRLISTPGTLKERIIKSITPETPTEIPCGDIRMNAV

Chain of Norepinephrine transporter (Q9WTR4 whole entry): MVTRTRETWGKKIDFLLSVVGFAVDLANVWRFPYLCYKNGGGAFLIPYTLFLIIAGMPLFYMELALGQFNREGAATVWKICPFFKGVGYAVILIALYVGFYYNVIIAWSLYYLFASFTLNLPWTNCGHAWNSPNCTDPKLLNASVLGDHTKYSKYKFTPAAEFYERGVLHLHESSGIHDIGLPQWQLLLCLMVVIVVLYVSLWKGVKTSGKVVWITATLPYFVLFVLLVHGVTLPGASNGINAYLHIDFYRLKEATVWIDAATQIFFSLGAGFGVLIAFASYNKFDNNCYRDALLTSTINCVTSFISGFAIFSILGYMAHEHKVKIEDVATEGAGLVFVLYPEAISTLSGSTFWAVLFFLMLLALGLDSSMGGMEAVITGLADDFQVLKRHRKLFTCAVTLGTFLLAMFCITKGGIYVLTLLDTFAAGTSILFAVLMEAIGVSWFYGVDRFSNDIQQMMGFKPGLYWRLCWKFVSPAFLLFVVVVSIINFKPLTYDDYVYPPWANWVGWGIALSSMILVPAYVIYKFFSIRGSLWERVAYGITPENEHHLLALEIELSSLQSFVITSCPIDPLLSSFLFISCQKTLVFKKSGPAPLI
Chain of Sodium-dependent dopamine transporter (P23977 whole entry): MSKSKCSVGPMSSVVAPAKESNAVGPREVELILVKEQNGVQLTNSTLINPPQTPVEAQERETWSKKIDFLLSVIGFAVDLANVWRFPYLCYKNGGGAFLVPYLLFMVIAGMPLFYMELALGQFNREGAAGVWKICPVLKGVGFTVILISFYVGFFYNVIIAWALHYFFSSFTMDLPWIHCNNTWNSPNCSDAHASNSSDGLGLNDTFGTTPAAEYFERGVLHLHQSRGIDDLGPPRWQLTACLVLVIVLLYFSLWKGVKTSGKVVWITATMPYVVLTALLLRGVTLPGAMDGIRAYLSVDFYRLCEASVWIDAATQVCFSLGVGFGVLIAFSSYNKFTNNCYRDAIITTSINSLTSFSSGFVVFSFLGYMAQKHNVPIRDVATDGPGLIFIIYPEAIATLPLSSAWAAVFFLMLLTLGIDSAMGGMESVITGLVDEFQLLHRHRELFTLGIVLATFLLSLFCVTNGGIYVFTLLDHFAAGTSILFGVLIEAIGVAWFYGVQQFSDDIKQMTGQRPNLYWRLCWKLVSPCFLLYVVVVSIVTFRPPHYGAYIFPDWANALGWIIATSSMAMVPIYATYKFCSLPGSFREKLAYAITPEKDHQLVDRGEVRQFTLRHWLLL

Compound	IC50 [1] [µM]	IC50 [2] [µM]	IC50 [3] [µM]
CN1[C@@H]2CC[C@@H]1C(O)(c1ccccc1)C(c1ccccc1)C2 (mixture of isomers)	2.86	> 175	37.2
CN1[C@@H]2CC[C@H]1[C@H](c1ccccc1)[C@H](c1ccccc1)C2 (racemic)	–	2.77	18.6
CN1[C@@H]2CC[C@H]1[C@@H](c1ccccc1)[C@@H](c1ccccc1)C2 (racemic)	0.028	2.67	34.7
CN1C2CCC1C(c1ccccc1)=C(c1ccccc1)C2 (racemic)	0.55	21.4	47.8

Reference: ChEMBL document CHEMBL1129994, “Synthesis and transporter binding properties of 2,3-diphenyltropane stereoisomers. Comparison to 3beta-phenyltropane-2beta-carboxylic acid esters” (J Med Chem, 1997)
